Tests used:
[1] = molecular target: T1, Ldtfm catalytic domain (LdtfmC442A) (Enterococcus faecium, UniProt Q3Y185, C442A); test: biochemical
T1 construct: gene HMPREF0351_12555

[2] = test system: CO/N=C(\C(=O)N[C@@H]1C(=O)N2C(C(=O)O)=C(CSc3nc(=O)c(=O)[nH]n3C)CS[C@H]12)c1csc(N)n1; test: purified protein; format: biochemical, Enterococcus faecium; conditions: covalent acylenzyme turnover, saturable step assigned to oxyanion formation, 5 µM enzyme, 100 mM sodium phosphate pH 6.0, 20°C
[3] = test system: CC1(C)S[C@@H]2[C@H](NC(=O)[C@H](N)c3ccccc3)C(=O)N2[C@H]1C(=O)O; test: purified protein; format: biochemical, Enterococcus faecium; conditions: covalent acylenzyme turnover, saturable step assigned to oxyanion formation, 5 µM enzyme, 100 mM sodium phosphate pH 6.0, 20°C

T1 sequence (Q3Y185 341-466 C442A): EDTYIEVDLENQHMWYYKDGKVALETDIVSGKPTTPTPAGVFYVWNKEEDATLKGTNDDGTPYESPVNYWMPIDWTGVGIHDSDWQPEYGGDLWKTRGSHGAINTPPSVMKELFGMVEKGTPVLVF

| Compound | Kd [1] [mM] | kcat [2] [s⁻¹] | K0.5 [3] [µM] | kcat [3] [s⁻¹] |
| --- | --- | --- | --- | --- |
| CC1(C)S[C@@H]2[C@H](NC(=O)[C@H](N)c3ccccc3)C(=O)N2[C@H]1C(=O)O [ampicillin] | 79 | – | – | – |
| CO/N=C(\C(=O)N[C@@H]1C(=O)N2C(C(=O)O)=C(CSc3nc(=O)c(=O)[nH]n3C)CS[C@H]12)c1csc(N)n1 [ceftriaxone] | 44 | – | – | – |
| C[C@@H](O)[C@H]1C(=O)N2C(C(=O)O)=C(S[C@@H]3CN[C@H](C(=O)Nc4cccc(C(=O)O)c4)C3)[C@H](C)[C@H]12 [ertapenem] | 50 | – | – | – |
| Ldtfm (Enterococcus faecium DO) | – | 0.00045 ± 5e-05 | 370 ± 30 | 0.003 ± 0.00017 |

Source: paper PMC3701632, “Kinetic Features of L,D-Transpeptidase Inactivation Critical for β-Lactam Antibacterial Activity” (PLoS ONE, 2013)
